Laboratory results from patent publication US6362369B1, “Phthalic acid diamide derivatives fluorine-containing aniline compounds as starting material, agricultural and horticultural insecticides, and a method for application of the insecticides” (Nihon Nohyaku Co., Ltd., priority 1997, dated 2002).

Tests used:
Type in all cases: in vivo
[1] = system: diamondback moth (Plutella xylostella); assay: Insecticidal effect on diamondback moth (Test Example 1); details: for Insecticidal effect on diamondback moth (Test Example 1), judged grade: mortality judged according to the criterion shown in Test Example 1; for Insecticidal effect, Test Example 1: diamondback moth, mortality judged by criterion of Test Example 1
In short: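 Eggs laid by adult moths on Chinese cabbage seedlings, which were immersed in test solution, air-dried and kept at 25 °C. Hatched insects counted 6 days after immersion and mortality calculated, with effect graded by criterion; triplicate groups of 10 insects.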

[2] = system: common cutworm (Spodoptera Litura); assay: Insecticidal effect on common cutworm (Test Example 2); details: 500 ppm, eight days after inoculation, 25° C.; for Insecticidal effect on common cutworm (Test Example 2), judged grade: cabbage leaf dip, second-instar larvae; for Insecticidal effect, Test Example 2: common cutworm second-instar larvae, cabbage leaf immersed
In short: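 After the treated material air-dries, it goes into a dish, second-instar larvae are added, and the dish is closed. Incubation runs at 25° C. On day eight, dead and living larvae are scored, and the calculated mortality is rated on an effect scale.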

[3] = system: rice leafroller (Cnaphalocrocis medinalis); assay: Insecticidal effect on rice leafroller (Test Example 3); details: 500 ppm, four days after inoculation, 25° C., humidity 70%; for Insecticidal effect on rice leafroller (Test Example 3), judged grade: rice lamina dip, third-instar larvae; for Insecticidal effect, Test Example 3: rice leafroller third-instar larvae, rice lamina immersed
In short: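 Groups of 10 third-instar larvae, in triplicate, are placed on air-dried lamina resting on wet filter paper. Incubation runs four days at 25° C with 70% humidity before survivors and dead are tallied.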

| Structure (SMILES) | Insecticidal effect on diamondback moth (Test Example 1), judged grade [1] | Insecticidal effect on common cutworm (Test Example 2), judged grade [2] | Insecticidal effect on rice leafroller (Test Example 3), judged grade [3] | Insecticidal effect, Test Example 1 [1] | Insecticidal effect, Test Example 2 [2] | Insecticidal effect, Test Example 3 [3] |
| --- | --- | --- | --- | --- | --- | --- |
| CC(C)(C)NC(=O)c1cccc(Cl)c1C(=O)Nc1ccc(C(F)(F)F)cc1 [compound 935] | A (100) | A (100) | A (100) |  |  |  |
| CC(C)(C)NC(=O)c1c(Cl)cccc1C(=O)Nc1ccc(OC(F)(F)F)cc1 [compound 936] | A (100) | A (100) | A (100) |  |  |  |
| Cc1cc(Cl)ccc1NC(=O)c1cccc(Cl)c1C(=O)NC(C)(C)C [compound 937] | A (100) | A (100) | A (100) |  |  |  |
| CC(C)(C)NC(=O)c1c(I)cccc1C(=O)Nc1ccc(C(F)(F)F)cc1 [compound 939] |  |  |  | A (100) | A (100) | A (100) |
| CC(C)(C)NC(=O)c1c(I)cccc1C(=O)Nc1ccc(OC(F)(F)F)cc1 [compound 940] |  |  |  | A (100) | A (100) | A (100) |
| Cc1cc(Cl)ccc1NC(=O)c1cccc(I)c1C(=O)NC(C)(C)C [compound 941] |  |  |  | A (100) | A (100) | A (100) |
| Cc1cc(C(F)(F)C(F)(F)F)ccc1NC(=O)c1cccc(I)c1C(=O)NC(C)(C)C [compound 942] |  |  |  | A (100) | A (100) | A (100) |
| Cc1cc(C(F)(F)C(F)(F)F)ccc1NC(=O)c1c(I)cccc1C(=O)NC(C)(C)C [compound 943] |  |  |  | A (100) | C (89-80) | A (100) |
| Cc1cc(OC(F)(F)F)ccc1NC(=O)c1cccc(Cl)c1C(=O)NC(C)(C)C [compound 944] |  |  |  | A (100) | A (100) | A (100) |
| CCCCNC(=O)c1c(I)cccc1C(=O)Nc1ccc(C(F)(F)C(F)(F)F)cc1C [compound 945] |  |  |  | A (100) | A (100) | A (100) |
| CCCCCNC(=O)c1c(I)cccc1C(=O)Nc1ccc(C(F)(F)C(F)(F)F)cc1C [compound 947] |  |  |  | A (100) | A (100) | A (100) |
| CCCCCCNC(=O)c1c(I)cccc1C(=O)Nc1ccc(C(F)(F)C(F)(F)F)cc1C [compound 949] |  |  |  | A (100) | A (100) | A (100) |
| CCc1cc(I)ccc1NC(=O)c1cccc(I)c1C(=O)NC(C)C [compound 951] |  |  |  | A (100) | A (100) | A (100) |
| Cc1cc(C(F)(F)C(F)(F)F)ccc1NC(=O)c1cccc(C)c1C(=O)NC(C)C [compound 953] |  |  |  | A (100) | A (100) | A (100) |
| Cc1cc(C(F)(F)C(F)(F)F)ccc1NC(=O)c1cccc(C)c1C(=O)NC(C)(C)C [compound 955] |  |  |  | A (100) | A (100) | A (100) |
| Cc1cc(OC(F)(F)F)ccc1NC(=O)c1cccc(I)c1C(=O)NC(C)(C)C [compound 957] |  |  |  | A (100) | A (100) | A (100) |

| Structure (SMILES) | Insecticidal effect on diamondback moth (Test Example 1), judged grade [1] | Insecticidal effect on common cutworm (Test Example 2), judged grade [2] | Insecticidal effect on rice leafroller (Test Example 3), judged grade [3] | Insecticidal effect, Test Example 1 [1] | Insecticidal effect, Test Example 2 [2] | Insecticidal effect, Test Example 3 [3] |
| --- | --- | --- | --- | --- | --- | --- |
| Cc1cc(C#Cc2ccc(Cl)cc2Cl)ccc1NC(=O)c1cccc(Cl)c1C(=O)NC(C)C [compound 971] |  |  |  | A (100) | A (100) | A (100) |
| CC(C)NC(=O)c1c(Cl)cccc1C(=O)Nc1ccc2c(c1)OC(F)(F)C2(F)F [compound 973] |  |  |  | A (100) | A (100) | A (100) |
| CC(C)NC(=O)c1c(I)cccc1C(=O)Nc1ccc2c(c1)OC(F)(F)C2(F)F [compound 974] |  |  |  | A (100) | A (100) | A (100) |
| CC(C)NC(=O)c1c(C(=O)Nc2ccc3c(c2)OC(F)(F)C(F)(F)O3)cccc1[N+](=O)[O-] [compound 976] |  |  |  | A (100) | A (100) | A (100) |
| CC(C)NC(=O)c1c(Cl)cccc1C(=O)Nc1ccc2c(c1)OC(F)(F)C(F)(F)O2 [compound 977] |  |  |  | A (100) | A (100) | A (100) |
| CC(C)NC(=O)c1ccccc1C(=O)Nc1ccc(C(O)(C(F)(F)F)C(F)(F)F)cc1 [compound 978] |  |  |  | A (100) | C (89-80) | A (100) |
| CC(C)NC(=O)c1c(C(=O)Nc2ccc(C(O)(C(F)(F)F)C(F)(F)F)cc2)cccc1[N+](=O)[O-] [compound 979] |  |  |  | A (100) | A (100) | A (100) |
| CC(C)NC(=O)c1c(Cl)cccc1C(=O)Nc1ccc(C(O)(C(F)(F)F)C(F)(F)F)cc1 [compound 980] |  |  |  | A (100) | A (100) | A (100) |
| COCCNC(=O)c1c(I)cccc1C(=O)Nc1ccc(C(F)(F)C(F)(F)F)cc1C [compound 981] |  |  |  | A (100) | A (100) | A (100) |
| CCOCCNC(=O)c1c(I)cccc1C(=O)Nc1ccc(C(F)(F)C(F)(F)F)cc1C [compound 983] |  |  |  | A (100) | A (100) | A (100) |
| COCCCNC(=O)c1c(I)cccc1C(=O)Nc1ccc(C(F)(F)C(F)(F)F)cc1C [compound 985] |  |  |  | A (100) | A (100) | A (100) |
| C=CCNC(=O)c1c(I)cccc1C(=O)Nc1ccc(C(F)(F)C(F)(F)F)cc1C [compound 987] |  |  |  | A (100) | A (100) | A (100) |
| C#CCNC(=O)c1c(I)cccc1C(=O)Nc1ccc(C(F)(F)C(F)(F)F)cc1C [compound 989] |  |  |  | A (100) | A (100) | A (100) |
| Cc1cc(C(F)(F)C(F)(F)F)ccc1NC(=O)c1cccc(I)c1C(=O)NC1CCCC1 [compound 991] |  |  |  | A (100) | A (100) | A (100) |
| CC(C)NC(=O)c1c(C(=O)Nc2ccc(SC(F)(F)F)cc2)cccc1[N+](=O)[O-] [compound 996] |  |  |  | A (100) | A (100) | A (100) |
